Measurements as given in patent US9260429B2, “Pyrido[3,4-B]indoles and methods of use” (Medivation Technologies, Inc., priority 2008, dated 2016).

Columns and labels:
[1] = target: T1, human recombinant histamine H1 receptor (Homo sapiens, UniProt P35367); experiment: Histamine H1 radioligand binding ([3H]Pyrilamine); settings: 1 μM; read-out: Binding data (Percentage Inhibition) Histamine Binding (1 μM) H1
T1 construct: expressed in transfected cells; host or cells: CHO cells
Procedure: To evaluate in radioligand binding assays the activity of compounds of the invention, human recombinant histamine H1 receptor expressed in Chinese hamster ovary (CHO) cells (De Backer, M. D. et al., Biochem. Biophys. Res. Comm. 197(3):1601, 1993) in a modified Tris-HCl buffer (50 mM Tris-HCl, pH 7.4, 2 mM MgCl2, 100 mM NaCl, 250 mM Sucrose) was used. Compounds of the invention were incubated with 1.2 nM [^3H]Pyrilamine for 180 minutes at 25° C. Non-specific binding was estimated in the presence of 1 μM pyrilamine. Receptor proteins were filtered and washed, the filters were then counted to determine [^3H]Pyrilamine specifically bound. […] Biochemical assay results are presented as the percent inhibition of specific binding in Table 3.

[2] = target: T2, human recombinant serotonin (5-Hydroxytryptamine) 5-HT2A receptor (Homo sapiens, UniProt P28223); experiment: Serotonin 5-HT2A radioligand binding ([3H]Ketanserin); settings: 1 h; read-out: Percent Inhibition of ligand binding Serotonin (1 μM ligand concentration) 5-HT2A
T2 construct: expressed in transfected cells; host or cells: CHO-K1 cells
T2 sequence (P28223 whole entry): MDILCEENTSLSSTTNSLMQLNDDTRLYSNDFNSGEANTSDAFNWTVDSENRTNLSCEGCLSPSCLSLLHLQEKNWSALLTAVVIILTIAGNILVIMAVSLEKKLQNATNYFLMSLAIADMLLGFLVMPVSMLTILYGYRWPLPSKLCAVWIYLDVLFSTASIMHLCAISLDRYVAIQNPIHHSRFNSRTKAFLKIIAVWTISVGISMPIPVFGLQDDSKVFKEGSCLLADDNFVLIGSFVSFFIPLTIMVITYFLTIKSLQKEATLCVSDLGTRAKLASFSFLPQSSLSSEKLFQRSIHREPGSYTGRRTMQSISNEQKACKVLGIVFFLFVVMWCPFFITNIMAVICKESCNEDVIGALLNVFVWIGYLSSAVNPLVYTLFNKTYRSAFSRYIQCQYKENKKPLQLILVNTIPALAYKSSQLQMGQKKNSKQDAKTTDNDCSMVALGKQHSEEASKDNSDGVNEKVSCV
Procedure: To evaluate in radioligand binding assays the activity of compounds of the invention, human recombinant serotonin (5-Hydroxytryptamine) 5-HT2A receptor expressed in Chinese hamster ovary (CHO-K1) cells (Bonhaus, D. W. et al. Br. J. Pharmacol. 115:622, 1995; Saucier, C. and Albert, P. R., J. Neurochem. 68:1998, 1997) in a 50 mM Tris-HCl buffer, pH 7.4, was used. Compounds of the invention were incubated with 0.5 nM [^3H]Ketanserin for 60 minutes at 25° C. Non-specific binding was estimated in the presence of 1 μM Mianserin. Receptor proteins were filtered and washed, the filters were then counted to determine [^3H]Ketanserin specifically bound. Compounds were screened at 1 μM or lower, using 1% DMSO as vehicle. Biochemical assay results are presented as the percent inhibition of specific binding in Table 5.

[3] = target: T3, human recombinant serotonin (5-Hydroxytryptamine) 5-HT7 receptor (Homo sapiens, UniProt P34969); experiment: Serotonin 5-HT7 radioligand binding ([3H]LSD); settings: 2 h; read-out: Percent Inhibition of ligand binding Serotonin (1 μM ligand concentration) 5-HT7
T3 construct: expressed in transfected cells; host or cells: CHO cells
T3 sequence (P34969 whole entry): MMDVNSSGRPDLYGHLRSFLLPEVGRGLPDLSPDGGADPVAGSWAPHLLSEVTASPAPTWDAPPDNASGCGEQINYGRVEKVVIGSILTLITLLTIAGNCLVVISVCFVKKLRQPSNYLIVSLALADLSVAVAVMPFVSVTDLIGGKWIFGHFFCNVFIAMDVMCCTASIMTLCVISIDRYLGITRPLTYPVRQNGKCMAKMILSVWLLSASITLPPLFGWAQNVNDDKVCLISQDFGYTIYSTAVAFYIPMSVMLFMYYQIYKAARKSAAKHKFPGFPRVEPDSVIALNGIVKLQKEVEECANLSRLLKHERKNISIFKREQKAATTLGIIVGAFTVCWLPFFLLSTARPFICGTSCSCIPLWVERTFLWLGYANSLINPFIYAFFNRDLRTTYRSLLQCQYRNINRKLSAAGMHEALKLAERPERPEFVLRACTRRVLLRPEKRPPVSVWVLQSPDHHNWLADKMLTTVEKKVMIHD
Procedure: To evaluate in radioligand binding assays the activity of compounds of the invention, human recombinant serotonin (5-Hydroxytryptamine) 5-HT7 receptor expressed in Chinese hamster ovary (CHO) cells (Roth, B. L. et al., J. Pharmacol. Exp. Ther. 268:1403, 1994; Shen, Y. et al., J. Biol. Chem. 268:18200, 1993) in a modified Tris-HCl buffer (50 mM Tris-HCl, pH 7.4, 10 mM MgCl2, 0.5 mM EDTA) was used. Compounds of invention were incubated with 5.5 nM [^3H]Lysergic acid diethylamide (LSD) for 2 hours at 25° C. Non-specific binding was estimated in the presence of […] Serotonin (5-HT). Receptor proteins were filtered and washed, the filters were then counted to determine [^3H]LSD specifically bound. Compounds were screened at 1 μM or lower, using 1% DMSO as vehicle. Biochemical assay results are presented as the percent inhibition of specific binding in Table 5.

[4] = target: T4, human recombinant dopamine D2L receptor (Homo sapiens, UniProt P14416); experiment: Dopamine D2L radioligand binding ([3H]Spiperone); settings: 2 h, 1 μM ligand conc.; read-out: Percent Inhibition of ligand binding Dopamine (1 μM ligand conc.) D2L
T4 construct: expressed in transfected cells; host or cells: CHO cells
T4 sequence (P14416 whole entry): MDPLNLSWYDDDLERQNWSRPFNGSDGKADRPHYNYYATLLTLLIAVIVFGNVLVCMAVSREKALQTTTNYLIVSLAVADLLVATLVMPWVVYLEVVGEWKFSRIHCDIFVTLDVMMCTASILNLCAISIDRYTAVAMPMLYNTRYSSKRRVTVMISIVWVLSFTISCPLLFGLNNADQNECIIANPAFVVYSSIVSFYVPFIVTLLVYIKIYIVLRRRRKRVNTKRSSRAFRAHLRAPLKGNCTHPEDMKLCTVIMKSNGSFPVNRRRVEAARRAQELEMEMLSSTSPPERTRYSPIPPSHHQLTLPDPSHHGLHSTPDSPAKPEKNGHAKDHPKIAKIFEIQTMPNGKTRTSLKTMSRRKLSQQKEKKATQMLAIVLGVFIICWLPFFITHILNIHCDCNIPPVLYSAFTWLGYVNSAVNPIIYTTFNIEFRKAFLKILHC
Procedure: To evaluate in radioligand binding assays the activity of compounds of the invention, human recombinant dopamine D2L receptor expressed in Chinese hamster ovary (CHO) cells (Grandy, D. K. et al. Proc. Natl. Acad. Sci. USA. 86:9762, 1989; Hayes, G. et al., Mol. Endocrinol. 6:920, 1992) in a modified Tris-HCl buffer (50 mM Tris-HCl, pH 7.4, 1.4 mM Ascorbic Acid, 0.001% BSA, 150 mM NaCl) was used. Compounds of the invention were incubated with 0.16 nM [^3H]Spiperone for 120 minutes at 25° C. Non-specific binding was estimated in the presence of […] Haloperidol. Receptor proteins were filtered and washed, the filters were then counted to determine [^3H]Spiperone specifically bound. Compounds were screened at 1 μM or lower, using 1% DMSO as vehicle. Biochemical assay results are presented as the percent inhibition of specific binding in Table 4.

[5] = target: T5, human recombinant serotonin (5-Hydroxytryptamine) 5-HT2C receptor (Homo sapiens, UniProt P28335); experiment: Serotonin 5-HT2C radioligand binding ([3H]Mesulergine); settings: 1 h; read-out: Percent Inhibition of ligand binding Serotonin (1 μM ligand concentration) 5-HT2C
T5 construct: expressed in transfected cells; host or cells: CHO-K1 cells
T5 sequence (P28335 33-458): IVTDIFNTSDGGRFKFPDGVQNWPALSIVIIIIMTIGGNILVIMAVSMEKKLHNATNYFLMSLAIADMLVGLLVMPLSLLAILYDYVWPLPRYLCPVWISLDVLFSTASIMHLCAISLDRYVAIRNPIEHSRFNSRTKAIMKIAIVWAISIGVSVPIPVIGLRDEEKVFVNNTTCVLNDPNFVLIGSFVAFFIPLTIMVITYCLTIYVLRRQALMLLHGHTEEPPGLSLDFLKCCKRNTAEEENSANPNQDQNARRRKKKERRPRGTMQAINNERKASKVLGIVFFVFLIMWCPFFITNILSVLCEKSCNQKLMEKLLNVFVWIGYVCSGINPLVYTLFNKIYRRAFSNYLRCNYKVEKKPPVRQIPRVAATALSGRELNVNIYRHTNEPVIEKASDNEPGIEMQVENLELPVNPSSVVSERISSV
Procedure: Compounds of the invention were incubated with 1 nM [^3H]Mesulergine for 60 minutes at 25° C. Non-specific binding was estimated in the presence of 1 μM Mianserin. Receptor proteins were filtered and washed, the filters were then counted to determine [^3H]Mesulergine specifically bound. […] Biochemical assay results are presented as the percent inhibition of specific binding in Table 5.

[6] = target: T6, human recombinant histamine H2 receptor (Homo sapiens, UniProt P25021); experiment: Histamine H2 radioligand binding ([125I]Aminopotentidine); settings: 1 μM; inhibition of specific [125I]Aminopotentidine binding; read-out: Binding data (Percentage Inhibition) Histamine Binding (1 μM) H2
T6 construct: expressed in transfected cells; host or cells: CHO-K1 cells
T6 sequence (P25021 whole entry): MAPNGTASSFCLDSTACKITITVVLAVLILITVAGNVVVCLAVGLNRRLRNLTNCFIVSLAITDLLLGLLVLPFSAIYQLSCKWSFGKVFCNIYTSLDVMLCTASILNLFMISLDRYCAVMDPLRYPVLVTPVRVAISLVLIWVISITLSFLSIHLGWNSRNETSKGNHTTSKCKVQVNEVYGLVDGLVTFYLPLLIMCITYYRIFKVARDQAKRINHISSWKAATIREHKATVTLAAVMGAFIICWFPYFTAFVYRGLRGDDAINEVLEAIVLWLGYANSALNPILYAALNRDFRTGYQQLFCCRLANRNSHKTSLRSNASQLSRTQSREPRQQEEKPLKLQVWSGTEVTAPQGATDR
Procedure: To evaluate in radioligand binding assays the activity of compounds of the invention, human recombinant histamine H2 receptor expressed in Chinese hamster ovary (CHO) K1 cells (Ruat, M., Proc. Natl. Acad. Sci. USA. 87(5):1658, 1990) in a 50 mM Phosphate buffer, pH 7.4 was used. Compounds of the invention were incubated with 0.1 nM [^125I]Aminopotentidine for 120 minutes at 25° C. Non-specific binding was estimated in the presence of 3 μM Tiotidine. Receptor proteins were filtered and washed, the filters were then counted to determine [^125I]Aminopotentidine specifically bound. Compounds were screened at 1 μM or lower, using 1% DMSO as vehicle. Biochemical assay results are presented as the percent inhibition of specific binding in Table 3.

[7] = target: T7, human recombinant serotonin (5-Hydroxytryptamine) 5-HT6 receptor (Homo sapiens, UniProt P50406); experiment: Serotonin 5-HT6 radioligand binding ([3H]LSD); settings: 2 h; read-out: Percent Inhibition of ligand binding Serotonin (1 μM ligand concentration) 5-HT6
T7 construct: expressed in transfected cells; host or cells: human HeLa cells
T7 sequence (P50406 whole entry): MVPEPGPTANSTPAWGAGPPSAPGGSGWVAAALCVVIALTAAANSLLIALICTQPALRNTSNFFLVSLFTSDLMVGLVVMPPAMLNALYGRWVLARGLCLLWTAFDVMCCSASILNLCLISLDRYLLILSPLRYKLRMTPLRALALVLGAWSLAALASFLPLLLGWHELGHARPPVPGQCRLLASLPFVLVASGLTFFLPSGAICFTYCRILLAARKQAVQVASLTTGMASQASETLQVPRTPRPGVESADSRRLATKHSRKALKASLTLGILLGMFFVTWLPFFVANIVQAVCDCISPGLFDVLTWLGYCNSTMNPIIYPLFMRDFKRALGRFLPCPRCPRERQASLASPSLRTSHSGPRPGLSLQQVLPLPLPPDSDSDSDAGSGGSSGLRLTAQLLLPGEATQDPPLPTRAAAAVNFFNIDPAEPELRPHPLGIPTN
Procedure: To evaluate in radioligand binding assays the activity of compounds of the invention, human recombinant serotonin (5-Hydroxytryptamine) 5-HT6 receptor expressed in human HeLa cells (Monsma, F. J. Jr. et al., Mol. Pharmacol. 43:320, 1993) in a modified Tris-HCl buffer (50 mM Tris-HCl, pH 7.4, 150 mM NaCl, 2 mM Ascorbic Acid, 0.001% BSA) was used. Compounds of the invention were incubated with 1.5 nM [3H]Lysergic acid diethylamide (LSD) for 120 minutes at 37° C. Non-specific binding was estimated in the presence of […] Serotonin (5-HT). Receptor proteins were filtered and washed, the filters were then counted to determine [3H]LSD specifically bound. Compounds were screened at 1 μM or lower, using 1% DMSO as vehicle. Biochemical assay results are presented as the percent inhibition of specific binding in Table 5.

T1 sequence (P35367 whole entry): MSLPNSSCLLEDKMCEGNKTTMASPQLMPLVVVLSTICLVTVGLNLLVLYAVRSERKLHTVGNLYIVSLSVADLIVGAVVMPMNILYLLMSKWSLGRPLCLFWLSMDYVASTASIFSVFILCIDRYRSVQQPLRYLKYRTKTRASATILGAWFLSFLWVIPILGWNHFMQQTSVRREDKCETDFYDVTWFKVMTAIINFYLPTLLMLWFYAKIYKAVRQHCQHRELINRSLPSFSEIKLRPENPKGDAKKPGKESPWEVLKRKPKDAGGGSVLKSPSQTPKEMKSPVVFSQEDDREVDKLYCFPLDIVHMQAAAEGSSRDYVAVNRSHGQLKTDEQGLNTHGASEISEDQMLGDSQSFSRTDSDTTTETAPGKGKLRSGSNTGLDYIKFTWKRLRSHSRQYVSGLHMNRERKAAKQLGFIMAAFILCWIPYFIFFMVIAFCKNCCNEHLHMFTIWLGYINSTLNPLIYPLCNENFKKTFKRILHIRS

| Compound | inhibition at 1 µM [1] | inhibition at 1 µM [2] | inhibition at 1 µM [3] | inhibition at 1 µM [4] | inhibition at 1 µM [5] | inhibition at 1 µM [6] | inhibition at 1 µM [7] |
| --- | --- | --- | --- | --- | --- | --- | --- |
| COc1ccc(/C(C)=C/n2c3c(c4cc(Cl)ccc42)CCN(C)C3)cc1F [Compound 122, 6-chloro-9-(2-(3-fluoro-4-methoxyphenyl)prop-1-enyl)-2-methyl-2,3,4,9-tetrahydro-1H-pyrido[3,4-b]indole] | 13% | 95% | 95% | 21% | 102% | 56% | 36% |
| Cc1ccc2c(c1)c1c(n2C#Cc2ccc(Cl)cc2)CN(C)CC1 [Compound 130, 9-((4-chlorophenyl)ethynyl)-2,6-dimethyl-2,3,4,9-tetrahydro-1H-pyrido[3,4-b]indole] | 5% | 91% | 22% | -3% | 95% | 51% | 7% |
| COc1ccc(C#Cn2c3c(c4cc(Cl)ccc42)CCN(C)C3)cc1F [Compound 155, 6-chloro-9-((3-fluoro-4-methoxyphenyl)ethynyl)-2-methyl-2,3,4,9-tetrahydro-1H-pyrido[3,4-b]indole] | 2% | 85% | 19% | 12% | 95% | 49% | 14% |
| C/C(=C/n1c2c(c3cc(C)ccc31)CCN(C)C2C)c1ccc(Cl)cc1Cl (centres unmarked) [Compound 169] | 20% | 80% | 78% | 5% | 91% | 50% | 24% |
| CCC1c2c(c3cc(C)ccc3n2/C=C(\C)c2ccc(Cl)cc2Cl)CCN1C (centres unmarked) [Compound 170] | 27% | 96% | 74% | 1% | 98% | 60% | 36% |
| CCC1c2c(c3cc(Cl)ccc3n2C(=O)Cc2ccc(F)cc2)CCN1C (centres unmarked) [Compound 171] | 15% | 80% | 13% | 5% | 92% | 17% | 36% |
| Cc1ccc2c(c1)c1c(n2C#Cc2ccc(Cl)cc2)C(C)N(C)CC1 (centres unmarked) [Compound 172, 9-((4-chlorophenyl)ethynyl)-1,2,6-trimethyl-2,3,4,9-tetrahydro-1H-pyrido[3,4-b]indole] | 11% | 96% | 1% | 1% | 100% | 45% | 10% |
| Cc1ccc2c(c1)c1c(n2C(=O)Cc2ccc(Cl)cc2)CN(C)CC1 [Compound 173] | 12% | 95% | 81% | 22% | 90% | 49% | 48% |
| C/C(=C/n1c2c(c3cc(C)ccc31)CCN(C)C2C)c1ccc(F)c(F)c1 (centres unmarked) [Compound 175, 9-(2-(3,4-difluorophenyl)prop-1-enyl)-1,2,6-trimethyl-2,3,4,9-tetrahydro-1H-pyrido[3,4-b]indole] | 25% | 86% | 82% | 0% | 97% | 60% | 77% |
| CCC1c2c(c3cc(C)ccc3n2/C=C(\C)c2ccc(F)c(F)c2)CCN1C (centres unmarked) [Compound 176, (E)-9-(2-(3,4-difluorophenyl)prop-1-enyl)-1-ethyl-2,6-dimethyl-2,3,4,9-tetrahydro-1H-pyrido[3,4-b]indole] | 17% | 81% | 53% | -2% | 94% | 26% | 26% |
| CCC1c2c(c3cc(C)ccc3n2/C=C(\C)c2ccc(Cl)c(Cl)c2)CCN1C (centres unmarked) [Compound 177, 9-(2-(3,4-dichlorophenyl)prop-1-enyl)-1-ethyl-2,6-dimethyl-2,3,4,9-tetrahydro-1H-pyrido[3,4-b]indole] | 11% | 83% | 57% | 9% | 88% | 39% | 6% |
